Test results: ChEMBL document CHEMBL4680234, “Antibacterial AZT derivative regulates metastasis of breast cancer cells” (Eur J Med Chem, 2020)
Converted amounts (≈) assume the structure as drawn. The source made the active and inactive calls. The rule behind the calls is not given here.

Tests used:
MDA-MB-231 [1] = experiment: Inhibition of actin polymerization in human MDA-MB-231 cells assessed as reduction in lamellipodium formation at 20 to 40 uM measured after 6 hrs by Texas Red-conjugated phalloidin staining based fluorescence microscopic analysis; type: cell-based; conditions: dose 20-40 µM
MDA-MB-231 [2] = experiment: Antimigratory activity in human MDA-MB-231 cells assessed as reduction in wound closure at 40 uM measured after 18 to 36 hrs by microscopic analysis; type: functional, cell-based; conditions: time 18-36 hrs
Escherichia coli = experiment: Antibacterial activity against Escherichia coli KCTC 1682 assessed as reduction in bacterial growth incubated for 18 to 22 hrs by spectrophotometry based broth microdilution method; type: functional; conditions: time 18-22 hrs, read-out: MIC100
Pseudomonas aeruginosa [3] = experiment: Antibacterial activity against Pseudomonas aeruginosa KCTC 1637 assessed as reduction in bacterial growth incubated for 18 to 22 hrs by spectrophotometry based broth microdilution method; type: functional; conditions: time 18-22 hrs, read-out: MIC100
Bacillus subtilis [4] = experiment: Antibacterial activity against Bacillus subtilis KCTC 3068 assessed as reduction in bacterial growth incubated for 18 to 22 hrs by spectrophotometry based broth microdilution method; type: functional; conditions: time 18-22 hrs, read-out: MIC100
Staphylococcus aureus [5] = experiment: Antibacterial activity against Staphylococcus aureus KCTC 1621 assessed as reduction in bacterial growth incubated for 18 to 22 hrs by spectrophotometry based broth microdilution method; type: functional; conditions: time 18-22 hrs, read-out: MIC100
Pseudomonas aeruginosa [6] = experiment: Potency index, ratio of melittin MIC to test compound MIC for antibacterial activity against Pseudomonas aeruginosa KCTC 1637; type: functional
Bacillus subtilis [7] = experiment: Potency index, ratio of melittin MIC to test compound MIC for antibacterial activity against Bacillus subtilis KCTC 3068; type: functional
Staphylococcus aureus [8] = experiment: Potency index, ratio of melittin MIC to test compound MIC for antibacterial activity against Staphylococcus aureus KCTC 1621; type: functional
Erythrocyte [9] = experiment: Hemolytic activity in sheep RBC at 16 ug/ml measured after 2 hrs by ELISA; type: cell-based, Ovis aries; conditions: dose 16 µg/ml
Erythrocyte [10] = experiment: Hemolytic activity in sheep RBC measured after 2 hrs by ELISA; type: ADME, cell-based, Ovis aries
[11] = Therapeutic index, ratio of MHC for sheep RBC to geometric mean of peptide MIC for Escherichia coli KCTC 1682; type: toxicity; conditions: sheep red blood cells (erythrocytes), read-out: TI
[12] = Therapeutic index, ratio of MHC for sheep RBC to geometric mean of peptide MIC for Pseudomonas aeruginosa KCTC 1637; type: toxicity; conditions: sheep red blood cells (erythrocytes), read-out: TI
[13] = Therapeutic index, ratio of MHC for sheep RBC to geometric mean of peptide MIC for Bacillus subtilis KCTC 3068; type: toxicity; conditions: sheep red blood cells (erythrocytes), read-out: TI
[14] = Therapeutic index, ratio of MHC for sheep RBC to geometric mean of peptide MIC for Staphylococcus aureus KCTC 1621; type: toxicity; conditions: sheep red blood cells (erythrocytes), read-out: TI
Staphylococcus aureus [15] = experiment: Antimicrobial activity against methicillin-resistant Staphylococcus aureus CCARM 3089 assessed as reduction in microbial growth incubated for 18 to 24 hrs by broth microdilution method; type: functional; conditions: time 18-24 hrs
Staphylococcus aureus [16] = experiment: Antimicrobial activity against methicillin-resistant Staphylococcus aureus CCARM 3090 assessed as reduction in microbial growth incubated for 18 to 24 hrs by broth microdilution method; type: functional; conditions: time 18-24 hrs
Staphylococcus aureus [17] = experiment: Antimicrobial activity against methicillin-resistant Staphylococcus aureus CCARM 3095 assessed as reduction in microbial growth incubated for 18 to 24 hrs by broth microdilution method; type: functional; conditions: time 18-24 hrs
Staphylococcus aureus [18] = experiment: Potency index, ratio of melittin MIC to test compound MIC for antimicrobial activity against methicillin-resistant Staphylococcus aureus CCARM 3089; type: functional
Staphylococcus aureus [19] = experiment: Potency index, ratio of melittin MIC to test compound MIC for antimicrobial activity against methicillin-resistant Staphylococcus aureus CCARM 3090; type: functional
Staphylococcus aureus [20] = experiment: Potency index, ratio of melittin MIC to test compound MIC for antimicrobial activity against methicillin-resistant Staphylococcus aureus CCARM 3095; type: functional
MDA-MB-231 [21] = experiment: Cytotoxicity against human MDA-MB-231 cells assessed as reduction in cell viability at 50 uM measured after 48 hrs by EZCytox cell viability assay; type: cell-based; conditions: mda-mb-231, 48 h
MDA-MB-231 [22] = experiment: Antiinvasive activity in human MDA-MB-231 cells at 40 uM measured after 16 hrs using crystal violet staining microscopy based Boyden chamber assay; type: functional, cell-based
MDA-MB-231 [23] = experiment: Inhibition of cell motility in human MDA-MB-231 cells assessed as reduction in cell migration distance at 40 uM measured at 30 mins interval for 24 hrs by time-lapse […] analysis; type: functional, cell-based
Pseudomonas aeruginosa [24] = experiment: Potency index, ratio of melittin MIC to test compound MIC for antimicrobial activity against multidrug-resistant Pseudomonas aeruginosa CCARM 2095 assessed as reduction in microbial growth
Pseudomonas aeruginosa [25] = experiment: Potency index, ratio of melittin MIC to test compound MIC for antimicrobial activity against multidrug-resistant Pseudomonas aeruginosa CCARM 2109 assessed as reduction in microbial growth

Cc1cn([C@H]2C[C@H](NC(=O)CC34CC5CC(CC(C5)C3)C4)[C@@H](CNC(=O)CC34CC5CC(CC(C5)C3)C4)O2)c(=O)nc1N(CCCNC(=N)N)CCCNC(=N)N
inhibition (MDA-MB-231 [1]): Active | Activity (MDA-MB-231 [2]): Active | MIC (Escherichia coli): 16 µg/mL (≈ 20.3 µM) | MIC (Pseudomonas aeruginosa [3]): 4 µg/mL (≈ 5.06 µM) | MIC (Bacillus subtilis [4]): 2 µg/mL (≈ 2.53 µM) | MIC (Staphylococcus aureus [5]): 2 µg/mL (≈ 2.53 µM) | Ratio (Pseudomonas aeruginosa [6]): 4 | Ratio (Bacillus subtilis [7]): 4 | Ratio (Staphylococcus aureus [8]): 4 | Activity (Erythrocyte [9]): Non-Toxic | MHC (Erythrocyte [10]): 25 µg/mL | selectivity ratio [11]: 4.2 | selectivity ratio [12]: 4.2 | selectivity ratio [13]: 4.2 | selectivity ratio [14]: 4.2 | MIC (Staphylococcus aureus [15]): 8 µg/mL | MIC (Staphylococcus aureus [16]): 8 µg/mL | MIC (Staphylococcus aureus [17]): 8 µg/mL | Ratio (Staphylococcus aureus [18]): 2 | Ratio (Staphylococcus aureus [19]): 2 | Ratio (Staphylococcus aureus [20]): 2 | Activity (MDA-MB-231 [21]): Non-Toxic | Activity (MDA-MB-231 [22]): Active | Activity (MDA-MB-231 [23]): Active | Ratio (Pseudomonas aeruginosa [24]): 2 | Ratio (Pseudomonas aeruginosa [25]): 2
